Measured values as given in patent US8507523B2, “Therapeutic tetrahydroisoquinoline-based compositions for cancer therapy” (priority 2006, dated 2013).
Read-outs that look alike come from different tables or passages of the source.

How the values were obtained:
[1] = tested on: normal primary cultures of rat brain astrocytes; experiment: Dose response (percent survival) in primary cultures of astrocytes; assay type: cell-based; settings: 4 days of treatment
Description: (§1) 6,7-Dimethoxy-1-[4-(4-methoxypyridin-3-yl)benzyl]-1,2,3,4-tetrahydroisoquinolinehydrochloride (EDL-291) was synthesized as described herein in the laboratory of Dr. Duane D. Miller at The University of Tennessee Health Science Center. Briefly, the primary cultures of astrocytes and cultures of C6 glioma cell lines were handled identically with respect to treatment concentrations and manipulations of cells for the screening assays. The cells were trypsinized and transferred to 96-well plates at a cell density of 10^3 cells/mm^2 in the wells. The cells were grown overnight in 100 μL of 10% FCS BME in a 37° C. incubator containing a humid, 5% CO2 atmosphere.
(§2) EDL291 was dissolved completely to make a […] stock solution and diluted to produce a series of concentrations. A 20 μL aliquot of these initial solutions was added to 180 μl of 2% FCS BME to produce the test concentration. The vehicle solution was tested as a control. […] Immediately before treatment, the 10% FCS BME was removed from the cells and replaced with the 180 μl of the treatment medium. The cultured cells (normal primary cultures of rat brain astrocytes or C6 glioma purchased from ATCC) were incubated with test compound for 4 days. The cells were fixed with 4% paraformaldehyde, stained with 0.1% Cresylecth violet stain, and quantitated. The screening data was collected as four wells for each dose per compound (screening) or concentration (dose response curve). Also, the average growth of 8 wells with no treatment was used as a negative control for each plate (100% growth). The cells for dose response curves were grown in the same media and were handled in a similar manner as in the screening assays.
(§3) The cytotoxic character of each compound was reported as the percent survival, calculated as the average A560 for treated cells divided by A560 of untreated (100% control) cells, and expressed as a percentage. Values less than 100% indicate a cytostatic or cytotoxic effect. Dose response curves and EC50 values were attained via plots of percent survival vs. concentration.

C6 glioma [2] = experiment: Dose response (percent survival) in C6 glioma cell cultures; assay type: cell-based, rat
Description: as §1, §2, §3

C6 glioma [3] = experiment: C6 glioma transplanted into rat brain, tumor size determination; assay type: in vivo, Sprague-Dawley rats
Method: For studies in which C6 glioma are transplanted into the brain, a C6 cell line produced in the inventors' laboratory that caries the β-galactosidase marker was used. The cell line was transfected with the pCMVβ expression vector (Clontech, Palo Alto, Calif.) and stable transfectants were selected using G418 (GibcoBRL). The glioma cells were plated at a density of 5×10^3 cells/cm^2 into T-75 culture flasks. The cells were allowed to grow to confluence in BME with 10% fetal calf serum. On the day before transplantation, the cultures were rinsed with Hank's Balanced Salt Solution placed in BME with 10% rat serum (Equitech-Bio Inc., Kerrville, Tex.).
A total of 18 male Sprague-Dawley rats (250-350 g) were deeply anesthetized with (13 mg/kg, Rompom and 87 mg/kg, Ketalar) for the surgery. The rats were monitored during the surgery to insure that they remained deeply anesthetized and unresponsive to pain. […]
The tumor was allowed to grow for three days prior to treatment. […] During the treatment period the animal were monitored daily. […]
The size of tumors in each animal was measured. […] The digital images were analyzed to define the volume of the tumor using the program NIH image. […] The codes were released and the data compiled and analyzed using a Student t test. […]

[4] = Acute toxicity observation in treated glioma-bearing rats; assay type: in vivo, Sprague-Dawley rats; settings: 40 mg/kg
Method: The tumor was allowed to grow for three days prior to treatment. EDL-291 (40 mg/kg) was delivered by IP delivery twice a day for the next seven days. Animals were placed into one of two treatment groups: 9 rats received carrier solution only (Hanks Balanced Salt Solution, HBSS plus 10% DMSO) and 9 rats received EDL-291. During the treatment period the animal were monitored daily. After a treating the animals for 7 days, the rats were deeply anesthetized with 26 mg/kg Rompium and 174 mg/kg Ketalar and perfused through the heart with saline followed by 4% paraformaldehyde in phosphate buffer (pH 7.4). Brains were removed from the skull, post-fixed for 24 hours and then placed in a 30% sucrose solution. The brains were sectioned at […] with a freezing microtome. One 1-in-5 series of sections was mounted on glass slides and stained by the Nissl method.
Approximately three days after tumor cell implantation, animals began receiving intraperitoneal administration of EDL-291 (40 mg/kg) twice daily for the next seven days. Animals were placed into one of two treatment groups: 9 rats received vehicle only (10% DMSO in Hanks Balanced Salt Solution, HBSS) and 9 rats received EDL-291. Animals were monitored daily during the treatment period. […]

## COc1cc2c(cc1OC)C(Cc1ccc(-c3cnccc3OC)cc1)NCC2.Cl (stereo not shown) [EDL-291, 6,7-Dimethoxy-1-[4-(4-methoxypyridin-3-yl)benzyl]-1,2,3,4-tetrahydroisoquinolinehydrochloride]
[1]; read-out: EC50 μM Astrocyte
  EC50: 26 µM
[1]; Rattus norvegicus, Astrocyte, 96 h
  EC50: 22.8 µM
C6 glioma [2]; EC50 astrocytes vs EC50 C6 glioma
  fold difference in effect concentration, C6 glioma relative to normal brain astrocytes: 36 fold
C6 glioma [2]; Rattus norvegicus, C6 glioma, 96 h, C6 glioma cells, 4 days of treatment, percent survival
  EC50: 0.6 µM
C6 glioma [3]; 40 mg/Kg BID IP for 7 days, n=9, p=0.02 (student t test)
  tumors smaller on average than in control rats: 32%
C6 glioma [3]; 40 mg/kg IP twice daily for 7 days
  tumor size compared to vehicle control animals (in words): statistically significant reduction in tumor size
[4]
  acute toxicity: no evidence of acute toxicity
